Article PMC12592400, “A unique inhibitor conformation selectively targets the DNA polymerase PolC of Gram-positive priority pathogens” (Nature Communications, 2025)
Where “and” joins values, the source holds several entries; their conditions need not be identical. Equal values may be shown once.

Legend:
Assay in all cases: Real-time DNA primer extension assay
[1] = target: exonuclease-inactivated E. faecium PolC (Exo^null, PolC^D431A+E433A) (Enterococcus faecium, UniProt A0A9X4B319, D429A/E431A); assay type: biochemical; conditions: for IC50: n = 3, ± SEM
Procedure: (§1) Polymerase activity was monitored in real-time[31],[32] with a 42-nt long 5’ carboxyfluorescein-labelled DNA oligonucleotide template strand (DNASP8_42) annealed to a 30-nt primer oligonucleotide (oMU014). Polymerase activity in this assay is monitored by measuring fluorescence quenching of the labelled DNA template as a result of primer extension by PolC (for details see Supplementary Fig. 1b, c). Both primers were HPLC purified. Primer extension assays were performed in Reaction Buffer (see Gel-based polymerase and exonuclease assays) supplemented with 0.5 mg/mL BSA, 0.05% Tween20 and 25 uM of each dNTP (SRB) in 384-well Black Round Bottom plates (Corning 4514). The polymerase was diluted in the SRB and incubated for at least 5 min in the presence of inhibitor or solvent, with a final solvent concentration of 1%. The reaction was initiated by the addition of an equal volume of DNA substrate in SRB as described below. Fluorescence emission data was collected with a BMG Labtech PHERAstar FSX reader for 30 min at room temperature.
(§2) Compounds were dispensed with an Echo acoustic liquid handler (Beckman Coulter). All compounds were dissolved to 1 mM and 10 mM stocks in 100% DMSO and transferred to Echo LDV or PP source plates (Labcyte, Inc., CA), then dispensed to 384-well plates with a Labcyte Echo550 or Echo650 acoustic dispenser at volumes of 2.5 to 100 nL per well. […] A Mantis microfluidic liquid dispenser (Formulatrix) was used to dispense 5 µL polymerase and 5 µL substrate DNA (individually diluted in SRB) per well. […] The final concentration of DNA was 70 nM.
(§3) Data were analysed and standard error of the means (SEM) determined in Prism 8.4.2 and 10.2.3 (GraphPad). Raw time-course polymerase activity was plotted against time, with SEM of triplicates determined. The rate of activity (represented by signal quenching) was determined during the first 8 min (linear stage) by calculating the slope of fluorescence intensity change (converted to a positive value) over time (in seconds). The slopes were then normalized to percentage activity (%); per ‘replicate range’, 100% activity was defined as polymerase activity in the absence of inhibitor (polymerase control), and 0% activity was determined in the absence of polymerase (DNA signal; negative control). The SEM was determined between ‘replicate ranges’. The IC50 was determined using the dose-response (inhibition) nonlinear regression ‘[Inhibitor] vs. response (three parameters)’ without constraints.

E. faecium DnaE = target: T1, E. faecium DnaE (Enterococcus faecium, UniProt Q3XYP9); assay type: biochemical; conditions: for rate of activity (slope of fluorescence intensity change over time): Fig. 1f source data, E. faecium DnaE; for IC50: Fig. 1f, n = 3, ± SEM
T1 sequence (Q3XYP9 1-1104): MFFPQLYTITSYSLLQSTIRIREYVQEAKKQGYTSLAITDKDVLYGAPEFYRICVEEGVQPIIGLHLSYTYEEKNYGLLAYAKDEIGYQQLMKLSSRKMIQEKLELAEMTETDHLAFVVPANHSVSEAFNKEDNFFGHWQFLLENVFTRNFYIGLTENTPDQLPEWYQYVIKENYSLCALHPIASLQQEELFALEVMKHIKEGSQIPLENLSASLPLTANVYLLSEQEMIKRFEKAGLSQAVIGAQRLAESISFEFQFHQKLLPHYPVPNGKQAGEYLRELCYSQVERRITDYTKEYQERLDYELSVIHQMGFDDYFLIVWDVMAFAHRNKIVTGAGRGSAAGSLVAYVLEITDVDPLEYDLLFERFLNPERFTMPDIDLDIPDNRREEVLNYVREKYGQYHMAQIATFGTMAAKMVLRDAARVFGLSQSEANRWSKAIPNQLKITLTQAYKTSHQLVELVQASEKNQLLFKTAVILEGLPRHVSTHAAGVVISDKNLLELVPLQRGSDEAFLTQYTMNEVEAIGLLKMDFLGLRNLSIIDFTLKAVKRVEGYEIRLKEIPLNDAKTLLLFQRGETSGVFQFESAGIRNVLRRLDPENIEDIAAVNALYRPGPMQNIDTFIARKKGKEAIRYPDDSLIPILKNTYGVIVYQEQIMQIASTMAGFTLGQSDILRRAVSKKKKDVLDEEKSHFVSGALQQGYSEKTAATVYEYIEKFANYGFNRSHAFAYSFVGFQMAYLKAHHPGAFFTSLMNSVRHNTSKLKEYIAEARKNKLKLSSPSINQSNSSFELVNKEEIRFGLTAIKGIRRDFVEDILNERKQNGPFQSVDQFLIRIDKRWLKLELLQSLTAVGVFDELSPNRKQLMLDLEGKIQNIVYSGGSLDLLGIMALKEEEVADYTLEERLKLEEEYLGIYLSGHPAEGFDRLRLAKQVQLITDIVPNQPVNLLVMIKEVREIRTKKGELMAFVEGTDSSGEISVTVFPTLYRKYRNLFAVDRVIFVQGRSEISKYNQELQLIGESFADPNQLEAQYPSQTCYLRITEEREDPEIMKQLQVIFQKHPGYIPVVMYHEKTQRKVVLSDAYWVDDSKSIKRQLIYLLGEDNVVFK

[2] = test system: E. faecium PolC^F1276S (exonuclease-inactivated); assay type: biochemical, Enterococcus faecium; conditions: versus wild-type PolC
Excerpt: The genes for PolC (locus_tag: MIBBHLJO_01574) and DnaE (locus_tag: MIBBHLJO_00911) from E. faecium ATCC 700221 were codon-optimized for expression in E. coli and synthesized in vector pET28b by Twist Bioscience (San Francisco, CA). Expression constructs for variant PolC proteins were created with QuikChange Site-Directed Mutagenesis (Agilent) with oligonucleotides listed in Supplementary Table 3. F1276L, F1276S, and A1281T were introduced to assess the effect of these mutations on inhibition by ACX compounds. Mutations D972A and D974A were introduced to inactivate the polymerase activity and mutations D431A and E433A were introduced to inactivate the exonuclease activity (Fig. 1d, Supplementary Fig. 1).
as §1, §2, §3

[3] = Fig. 1e source data, inhibitor 2.5 uM, replicates 1-3
[4] = Fig. 1e source data, inhibitor 4 uM, replicates 1-3
[5] = Fig. 1e source data, inhibitor 5.75 uM, replicates 1-3
[6] = Fig. 1e source data, inhibitor 8.75 uM, replicates 1-3
[7] = Fig. 1e source data, inhibitor 12.5 uM, replicates 1-3
[8] = Fig. 1e source data, inhibitor 20 uM, replicates 1-3
[9] = Fig. 1e source data, inhibitor 30 uM, replicates 1-3
[10] = Fig. 1e source data, inhibitor 45 uM, replicates 1-3
[11] = Fig. 1e source data, inhibitor 67.5 uM, replicates 1-3
[12] = Fig. 1e source data, inhibitor 100 uM, replicates 1-3
[13] = Fig. 4b source data, PolC (Exonull), inhibitor 1 uM
[14] = Fig. 4b source data, PolC (Exonull), inhibitor 1.75 uM
[15] = Fig. 4b source data, PolC (Exonull), inhibitor 2.5 uM
[16] = Fig. 4b source data, PolC (Exonull), inhibitor 4 uM
[17] = Fig. 4b source data, PolC (Exonull), inhibitor 5.75 uM
[18] = Fig. 4b source data, PolC (Exonull), inhibitor 8.8 uM
[19] = Fig. 4b source data, PolC (Exonull), inhibitor 20 uM
[20] = IC50, Fig. 1e, inhibitor 2.5-100 μM
[21] = IC50 PolC, Fig. 4b, wild-type PolC (exonuclease-inactivated), inhibitor up to 225 μM

O=c1[nH]c(NCc2ccc3c(c2)OC(F)(F)O3)nc2c(F)nn(CCO)c12 [ACX-801, 5-(((2,2-difluorobenzo[d][1,3]dioxol-5-yl)methyl)amino)-3-fluoro-1-(2-hydroxyethyl)-1,6-dihydro-7H-pyrazolo[4,3-d]pyrimidin-7-one]
rate of activity (slope of fluorescence intensity change over time) [1, 3]: 16.9 and 13.9 and 11.9
rate of activity (slope of fluorescence intensity change over time) [1, 4]: 8.8 and 10.0
rate of activity (slope of fluorescence intensity change over time) [1, 5]: 8.5 and 6.8 and 7.4
rate of activity (slope of fluorescence intensity change over time) [1, 6]: 6.9 and 3.4 and 4.8
rate of activity (slope of fluorescence intensity change over time) [1, 7]: 9.5 and 6.4 and 6.3
rate of activity (slope of fluorescence intensity change over time) [1, 8]: 3.9 and 4.0 and 3.8
rate of activity (slope of fluorescence intensity change over time) [1, 9]: 1.2 (2×) and 2.5
rate of activity (slope of fluorescence intensity change over time) [1, 10]: 0.4 and -0.11 and -1.5
rate of activity (slope of fluorescence intensity change over time) [1, 11]: -0.534 and -0.6 and -2.3
rate of activity (slope of fluorescence intensity change over time) [1, 12]: -1.1 and -0.9 and -1.0
rate of activity (slope of fluorescence intensity change over time) [1, 13]: 39.9 and 41.9
rate of activity (slope of fluorescence intensity change over time) [1, 14]: 37.2 and 42.3 and 40.2
rate of activity (slope of fluorescence intensity change over time) [1, 15]: 36.3 and 36.1
rate of activity (slope of fluorescence intensity change over time) [1, 16]: 30.8 and 32.5 and 32.0
rate of activity (slope of fluorescence intensity change over time) [1, 17]: 23.4 and 22.7 and 23.0
rate of activity (slope of fluorescence intensity change over time) [1, 18]: 23.6 and 23.3 and 21.3
rate of activity (slope of fluorescence intensity change over time) [1, 19]: 11.8 and 10.7 and 11.9
rate of activity (slope of fluorescence intensity change over time) ([1]; Fig. 4b source data, PolC (Exonull), inhibitor 30 uM): 6.7 and 7.0 and 4.9
IC50 [1, 20]: 5.8 µM
IC50 [1, 21]: 11.7 ± 1.1 µM
rate of activity (slope of fluorescence intensity change over time) (E. faecium DnaE; inhibitor 2.5 uM): 49.5 and 44.4 and 49.3
rate of activity (slope of fluorescence intensity change over time) (E. faecium DnaE; inhibitor 4 uM): 51.3 and 51.4 and 45.3
rate of activity (slope of fluorescence intensity change over time) (E. faecium DnaE; inhibitor 12.5 uM): 48.4 and 47.3 and 48.0
rate of activity (slope of fluorescence intensity change over time) (E. faecium DnaE; inhibitor 20 uM): 47.8 and 51.2
rate of activity (slope of fluorescence intensity change over time) (E. faecium DnaE; inhibitor 30 uM): 50.3 and 47.9 and 46.9
rate of activity (slope of fluorescence intensity change over time) (E. faecium DnaE; inhibitor 45 uM): 47.9 and 46.1 and 47.4
rate of activity (slope of fluorescence intensity change over time) (E. faecium DnaE; inhibitor 67.5 uM): 46.5 and 39.7 and 47.4
rate of activity (slope of fluorescence intensity change over time) (E. faecium DnaE; inhibitor 100 uM): 45.5 and 39.2 and 38.1
IC50 (E. faecium DnaE): > 100 µM
increase in IC50 by the F1276S mutation [2]: > 8 fold

O=c1[nH]c(NCc2ccc(Cl)c(Cl)c2)nc2ncn(CCN3CCOCC3)c12 [IBZ, N^2-(3,4-dichlorobenzyl)-7-(2-[1-morpholinyl]ethyl)guanine]
rate of activity (slope of fluorescence intensity change over time) [1, 3]: 31.9 and 18.7 and 16.2
rate of activity (slope of fluorescence intensity change over time) [1, 4]: 28.6 and 14.0
rate of activity (slope of fluorescence intensity change over time) [1, 5]: 24.9 and 15.1 and 11.5
rate of activity (slope of fluorescence intensity change over time) [1, 6]: 19.6 and 9.9 and 9.1
rate of activity (slope of fluorescence intensity change over time) [1, 7]: 18.4 and 12.8 and 8.3
rate of activity (slope of fluorescence intensity change over time) [1, 8]: 8.2 and 4.7
rate of activity (slope of fluorescence intensity change over time) [1, 9]: 9.1 and 5.5 and 3.7
rate of activity (slope of fluorescence intensity change over time) [1, 10]: 6.8 and 2.9 and 1.6
rate of activity (slope of fluorescence intensity change over time) [1, 11]: 4.7 and 1.7 and -0.348
rate of activity (slope of fluorescence intensity change over time) [1, 12]: -0.9 and -0.439 and 1.4
rate of activity (slope of fluorescence intensity change over time) [1, 13]: 34.5 and 33.9 and 33.6
rate of activity (slope of fluorescence intensity change over time) [1, 14]: 31.8 and 30.8
rate of activity (slope of fluorescence intensity change over time) [1, 15]: 27.4 and 24.3
rate of activity (slope of fluorescence intensity change over time) [1, 16]: 19.3 and 20.4
rate of activity (slope of fluorescence intensity change over time) [1, 17]: 12.7 and 13.8
rate of activity (slope of fluorescence intensity change over time) [1, 18]: 8.9 and 8.1 and 9.9
rate of activity (slope of fluorescence intensity change over time) [1, 19]: 4.0 and 3.7 and 2.8
IC50 [1, 20]: 12.3 µM
IC50 [1, 21]: 4.7 ± 0.3 µM
rate of activity (slope of fluorescence intensity change over time) (E. faecium DnaE; inhibitor 2.5 uM): 49.8 and 49.1 and 50.9
rate of activity (slope of fluorescence intensity change over time) (E. faecium DnaE; inhibitor 4 uM): 37.6 and 41.6 and 39.1
rate of activity (slope of fluorescence intensity change over time) (E. faecium DnaE; inhibitor 12.5 uM): 40.9 and 43.1 and 37.2
rate of activity (slope of fluorescence intensity change over time) (E. faecium DnaE; inhibitor 20 uM): 38.6 and 37.7 and 36.0
rate of activity (slope of fluorescence intensity change over time) (E. faecium DnaE; inhibitor 30 uM): 35.7 and 37.2 and 30.7
rate of activity (slope of fluorescence intensity change over time) (E. faecium DnaE; inhibitor 45 uM): 28.3 and 28.4 and 27.5
rate of activity (slope of fluorescence intensity change over time) (E. faecium DnaE; inhibitor 67.5 uM): 18.3 and 24.4 and 21.1
rate of activity (slope of fluorescence intensity change over time) (E. faecium DnaE; inhibitor 100 uM): 19.9 and 17.8 and 14.2
IC50 (E. faecium DnaE): 89.3 µM
inhibition towards E. faecium DnaE lower than PolC (E. faecium DnaE; in vitro, DnaE versus PolC): ~ seven-fold
increase in IC50 by the F1276S mutation [2]: > 48 fold
